Values joined by “and” are separate entries in the source; they are usually repeats but may differ in a detail not shown here. Identical values can stand only once.
System: OVCAR-5 complex spheroids with HUVEC/MSC, viability, % test/control
Assay: Anticancer human tumor OVCAR-5 cell line growth inhibition [AhR];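 note: spheroids exposed to compounds for 7 days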;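 for viability, T/C: 100% = DMSO vehicle control wells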
Settings: for viability, T/C: stronger effect = lower value
Description: Multicellular complex tumor spheroid response to aryl hydrocarbon receptor antagonists in combination with a variety of drugs and investigational agents in selected tumor cell lines
The current study was undertaken to assess response to aryl hydrocarbon receptor antagonists in combination with standard-of-care drugs and investigational agents in solid tumor complex spheroid models. Complex spheroids include a stromal component modeled by human endothelial cells (HUVEC) and fibroblasts modeled by human mesenchymal stem cells (MSCs). The concentration ranges selected for each drug and investigational agent were based upon clinically achievable concentrations if the clinical Cmax of the agent was known.
Compounds. The drugs and investigational agents: BAY 2416964 (NSC825713), GNF351 (NSC835774), CH-223191 (NSC835775), CPI-455 (NSC825282), aza-TdCyd (NSC777586), decitabine (NSC127716), belinostat (NSC758774), entinostat (NSC756642), pevonedistat (NSC761192), tazemetostat (NSC777109), talazoparib (NSC765396), olaparib (NSC753686), selinexor (NSC780203), nedisertib (M3814, NSC802822), bortezomib (NSC756655), venetoclax (NSC766270), doxorubicin (NSC123127), elimusertib (BAY189344, NSC800525), ceralasertib (AZD6738, NSC777638), TAK-243 (NSC785004), alisertib (NSC759677), etoposide (NSC141540), topotecan (NSC609699), eribulin (NSC707389), gemcitabine (NSC613327), carboplatin (NSC241240), cisplatin (NSC119875), and SN-38 (NSC673596) were obtained from the National Cancer Institute (NCI) Developmental Therapeutics Program Chemical Repository (32). The FDA-approved anticancer drug set is available from the Developmental Therapeutics Program at https://dtp.cancer.gov/organization/dscb/obtaining/available plates.htm. […] The stock solutions were prepared in dimethyl sulfoxide (DMSO, Sigma-Aldrich, St. Louis, MO, cat. D2650), except for the platinum compounds which were prepared in saline (Quality Biological, Gaithersburg, MD, cat. 114-055-101), at 800-fold the tested concentration and stored at -70 degrees C prior to their use. All drugs and investigational agents were tested over a range starting from a high concentration at or near the clinical Cmax and decreasing in half-log increments. If the clinical Cmax for an agent had not been determined, the highest concentration tested was 10 microM (Table 1).
Cell Culture. All cells were maintained in an incubator at 37 degrees C and 5% CO2 with 95% humidity. The PDC lines were cultured according to standard operating procedures established by the NCI PDMR (https://pdmr.cancer.gov). Briefly, all PDCs were thawed and cultured in Matrigel-coated flasks prepared with a working solution of 1X Ham's F-12 nutrient mix, without supplementation (Invitrogen, Waltham, MA, cat. 11765054), 100 U/mL penicillin-streptomycin (Invitrogen, cat. 15140122), and 2.5% Matrigel (Corning Inc., Corning, NY, cat. 354248) for the first three passages. All PDCs were cultured in complete DMEM/F-12 media containing advanced DMEM/F-12 (Invitrogen, cat. 12634028), 4.9% defined fetal bovine serum, heat inactivated (HyClone Laboratories Inc., Logan, UT, cat. SH30070.03HI), 389 ng/mL hydrocortisone (Sigma-Aldrich, cat. H4001), 9.7 ng/mL human EGF recombinant protein (Invitrogen, cat. PHG0313), 23.4 microg/mL adenine (Sigma-Aldrich, cat. A2786), 97.3 U/mL penicillin-streptomycin (Invitrogen, cat. 15140122), 1.9 mM L-glutamine (Invitrogen, cat. 25030081), and 9.7 microM Y-27632 dihydrochloride (Tocris Bioscience, Bristol, United Kingdom, cat. 1254). The PDCs were cultured in complete DMEM/F12 media without 10 microM Y-27632 dihydrochloride for at least two passages prior to the screen. The established cell lines NCI-H1341 and […] were cultured in DMEM/F-12, HEPES (Invitrogen, cat. 11330032), 5% defined fetal bovine serum (HyClone Laboratories Inc., cat. SH30070.03), ITS premix universal culture supplement [insulin (5 microg/mL), transferrin (5 microg/mL), and selenious acid (5 ng/mL)] […]

[1] = curve of first compound, second compound 0.1 µM
[2] = curve of first compound, second compound 0.316 µM
[3] = curve of first compound, second compound 1 µM
[4] = curve of first compound, second compound 3.16 µM
[5] = curve of first compound, second compound 10 µM

**Q.** How did the IC50 [1] turn out when `COc1cc(Nc2ncc3c(n2)-c2ccc(Cl)cc2C(c2c(F)cccc2OC)=NC3)ccc1C(=O)O` + CC(CO)NC(=O)c1cc(-c2ccc(Cl)cc2)nn(-c2cnn(C)c2)c1=O was run?
**A.** 1820 nM

**Q.** And the IC50 [2]?
**A.** 2430 nM

**Q.** What about the IC50 [3] of the same compound?
**A.** 3710 nM

**Q.** And the IC50 [4]?
**A.** 1760 nM

**Q.** What about the IC50 [5] of the same compound?
**A.** 8330 nM

**Q.** What about the viability, T/C (second compound 0.1 µM, first compound 0.0316 µM) of the same compound?
**A.** 88.6%

**Q.** What about the viability, T/C (second compound 0.1 µM, first compound 0.1 µM) of the same compound?
**A.** 84.8%

**Q.** What about the viability, T/C (second compound 0.1 µM, first compound 0.316 µM) of the same compound?
**A.** 62.4%

**Q.** And the viability, T/C (second compound 0.1 µM, first compound 1 µM)?
**A.** 55.9%

**Q.** And the viability, T/C (second compound 0.1 µM, first compound 3.16 µM)?
**A.** 48.1%

**Q.** And the viability, T/C (second compound 0.1 µM, first compound 10 µM)?
**A.** 43.3%

**Q.** And the viability, T/C (second compound 0.316 µM, first compound 0.0316 µM)?
**A.** 87.3%

**Q.** And the viability, T/C (second compound 0.316 µM, first compound 0.1 µM)?
**A.** 84.4%

**Q.** What about the viability, T/C (second compound 0.316 µM, first compound 0.316 µM) of the same compound?
**A.** 65.7%

**Q.** And the viability, T/C (second compound 0.316 µM, first compound 1 µM)?
**A.** 60%

**Q.** What about the viability, T/C (second compound 0.316 µM, first compound 3.16 µM) of the same compound?
**A.** 47.9%

**Q.** And the viability, T/C (second compound 0.316 µM, first compound 10 µM)?
**A.** 38.7%

**Q.** And the viability, T/C (second compound 1 µM, first compound 0.0316 µM)?
**A.** 92.1%

**Q.** What about the viability, T/C (second compound 1 µM, first compound 0.1 µM) of the same compound?
**A.** 87%

**Q.** What about the viability, T/C (second compound 1 µM, first compound 0.316 µM) of the same compound?
**A.** 69.5%

**Q.** And the viability, T/C (second compound 1 µM, first compound 1 µM)?
**A.** 60.1%

**Q.** What about the viability, T/C (second compound 1 µM, first compound 3.16 µM) of the same compound?
**A.** 54%

**Q.** And the viability, T/C (second compound 1 µM, first compound 10 µM)?
**A.** 41.8%

**Q.** And the viability, T/C (second compound 3.16 µM, first compound 0.0316 µM)?
**A.** 79.4%

**Q.** And the viability, T/C (second compound 3.16 µM, first compound 0.1 µM)?
**A.** 81.8%

**Q.** And the viability, T/C (second compound 3.16 µM, first compound 0.316 µM)?
**A.** 65.4%

**Q.** And the viability, T/C (second compound 3.16 µM, first compound 1 µM)?
**A.** 55%

**Q.** What about the viability, T/C (second compound 3.16 µM, first compound 3.16 µM) of the same compound?
**A.** 46.7%

**Q.** And the viability, T/C (second compound 3.16 µM, first compound 10 µM)?
**A.** 42.4%

**Q.** And the viability, T/C (second compound 10 µM, first compound 0.0316 µM)?
**A.** 75.5%

**Q.** What about the viability, T/C (second compound 10 µM, first compound 0.1 µM) of the same compound?
**A.** 72.8%

**Q.** What about the viability, T/C (second compound 10 µM, first compound 0.316 µM) of the same compound?
**A.** 62.9%

**Q.** And the viability, T/C (second compound 10 µM, first compound 1 µM)?
**A.** 59%

**Q.** What about the viability, T/C (second compound 10 µM, first compound 3.16 µM) of the same compound?
**A.** 51.8%

**Q.** And the viability, T/C (second compound 10 µM, first compound 10 µM)?
**A.** 50.4%

**Q.** Which viability, T/C (compound 0.0316 µM) does the source give for `Nc1ccn(C2OC(CO)C(O)C2(F)F)c(=O)n1` (configuration not stated) here?
**A.** 32.6% and 27.9% and 33.8%

**Q.** What about the viability, T/C (compound 0.1 µM) of the same compound?
**A.** 30.9% and 25.9% and 30.5%

**Q.** And the viability, T/C (compound 0.316 µM)?
**A.** 31.4% and 27.5% and 30.8%

**Q.** What about the viability, T/C (compound 1 µM) of the same compound?
**A.** 31.7% and 27.9% and 31.9%

**Q.** What about the viability, T/C (compound 3.16 µM) of the same compound?
**A.** 32.3% and 29.7% and 33.2%

**Q.** What about the viability, T/C (compound 10 µM) of the same compound?
**A.** 31.7% and 27.8% and 29.7%

**Q.** What about the IC50 (curve of compound) of the same compound?
**A.** < 31.6 nM

**Q.** What does the source list for `Nc1ncn(C2CC(O)C(CO)S2)c(=O)n1` (configuration not stated) + Cc1ccccc1N=Nc1ccc(NC(=O)c2ccnn2C)c(C)c1?
**A.** IC50 [1]: > 300 nM; IC50 [2]: > 300 nM; IC50 [3]: > 300 nM; IC50 [4]: > 300 nM; IC50 [5]: > 300 nM; viability, T/C (second compound 0.1 µM, first compound 0.000949 µM): 105%; viability, T/C (second compound 0.1 µM, first compound 0.003 µM): 108%; viability, T/C (second compound 0.1 µM, first compound 0.00949 µM): 105%; viability, T/C (second compound 0.1 µM, first compound 0.03 µM): 101%; viability, T/C (second compound 0.1 µM, first compound 0.0949 µM): 87.4%; viability, T/C (second compound 0.1 µM, first compound 0.3 µM): 79%; viability, T/C (second compound 0.316 µM, first compound 0.000949 µM): 113%; viability, T/C (second compound 0.316 µM, first compound 0.003 µM): 109%; viability, T/C (second compound 0.316 µM, first compound 0.00949 µM): 112%; viability, T/C (second compound 0.316 µM, first compound 0.03 µM): 106%; viability, T/C (second compound 0.316 µM, first compound 0.0949 µM): 86.5%; viability, T/C (second compound 0.316 µM, first compound 0.3 µM): 77.8%; viability, T/C (second compound 1 µM, first compound 0.000949 µM): 114%; viability, T/C (second compound 1 µM, first compound 0.003 µM): 115%; viability, T/C (second compound 1 µM, first compound 0.00949 µM): 113%; viability, T/C (second compound 1 µM, first compound 0.03 µM): 108%; viability, T/C (second compound 1 µM, first compound 0.0949 µM): 95%; viability, T/C (second compound 1 µM, first compound 0.3 µM): 82.5%; viability, T/C (second compound 3.16 µM, first compound 0.000949 µM): 112%; viability, T/C (second compound 3.16 µM, first compound 0.003 µM): 112%; viability, T/C (second compound 3.16 µM, first compound 0.00949 µM): 114%; viability, T/C (second compound 3.16 µM, first compound 0.03 µM): 110%; viability, T/C (second compound 3.16 µM, first compound 0.0949 µM): 95.6%; viability, T/C (second compound 3.16 µM, first compound 0.3 µM): 80%; viability, T/C (second compound 10 µM, first compound 0.000949 µM): 107%; viability, T/C (second compound 10 µM, first compound 0.003 µM): 111%; viability, T/C (second compound 10 µM, first compound 0.00949 µM): 108%; viability, T/C (second compound 10 µM, first compound 0.03 µM): 108%; viability, T/C (second compound 10 µM, first compound 0.0949 µM): 89.2%; viability, T/C (second compound 10 µM, first compound 0.3 µM): 78.8%

Source: PubChem BioAssay AID1919015 (Molecular Pharmacology Branch, DTP, NCI, 2023)
